Our source for the IC50 values is US8471005B2 (Cephalon, Inc., priority 2008, dated 2013).

Read-outs that look alike come from different tables or passages of the source.

The target of one test is T1, ALK (Homo sapiens, UniProt Q9UM73).
T1 construct: host or cells: baculovirus expression system
Description: ALK Kinase Assay (ELISA/TRF, PLC-γ substrate). The class given is biochemical. The following applies: read-out: ALK Potency. The gist of the method: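 Time-resolved fluorescence ELISA using Eu-N1 PT66 antibody to detect phosphorylated PLC-γ (coated at 10 μg/mL). Enzyme at 30 ng/ml ALK; 15 min incubation, 37° C.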

Another test has as its target T2, JAK2 (Homo sapiens, UniProt O60674).
T2 construct: host or cells: baculovirus expression system
Description: Recombinant Human JAK2 Kinase Assay (TRF). The following applies: read-out: JAK2 Potency. The class given is biochemical. The gist of the method: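 Kinase activity of baculovirus-expressed JAK2 is followed on a surface-immobilised biotinylated peptide, with the reaction run for 20 min at room temperature in buffer containing 0.2 μM ATP and manganese. Phosphorylation is read with Eu-N1 PY100 antibody.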

Setting [1] is: ALK kinase inhibition, 1 μM ATP.
[2] abbreviates: JAK2 kinase inhibition, 0.2 μM ATP.

T1 sequence (Q9UM73 19-1620): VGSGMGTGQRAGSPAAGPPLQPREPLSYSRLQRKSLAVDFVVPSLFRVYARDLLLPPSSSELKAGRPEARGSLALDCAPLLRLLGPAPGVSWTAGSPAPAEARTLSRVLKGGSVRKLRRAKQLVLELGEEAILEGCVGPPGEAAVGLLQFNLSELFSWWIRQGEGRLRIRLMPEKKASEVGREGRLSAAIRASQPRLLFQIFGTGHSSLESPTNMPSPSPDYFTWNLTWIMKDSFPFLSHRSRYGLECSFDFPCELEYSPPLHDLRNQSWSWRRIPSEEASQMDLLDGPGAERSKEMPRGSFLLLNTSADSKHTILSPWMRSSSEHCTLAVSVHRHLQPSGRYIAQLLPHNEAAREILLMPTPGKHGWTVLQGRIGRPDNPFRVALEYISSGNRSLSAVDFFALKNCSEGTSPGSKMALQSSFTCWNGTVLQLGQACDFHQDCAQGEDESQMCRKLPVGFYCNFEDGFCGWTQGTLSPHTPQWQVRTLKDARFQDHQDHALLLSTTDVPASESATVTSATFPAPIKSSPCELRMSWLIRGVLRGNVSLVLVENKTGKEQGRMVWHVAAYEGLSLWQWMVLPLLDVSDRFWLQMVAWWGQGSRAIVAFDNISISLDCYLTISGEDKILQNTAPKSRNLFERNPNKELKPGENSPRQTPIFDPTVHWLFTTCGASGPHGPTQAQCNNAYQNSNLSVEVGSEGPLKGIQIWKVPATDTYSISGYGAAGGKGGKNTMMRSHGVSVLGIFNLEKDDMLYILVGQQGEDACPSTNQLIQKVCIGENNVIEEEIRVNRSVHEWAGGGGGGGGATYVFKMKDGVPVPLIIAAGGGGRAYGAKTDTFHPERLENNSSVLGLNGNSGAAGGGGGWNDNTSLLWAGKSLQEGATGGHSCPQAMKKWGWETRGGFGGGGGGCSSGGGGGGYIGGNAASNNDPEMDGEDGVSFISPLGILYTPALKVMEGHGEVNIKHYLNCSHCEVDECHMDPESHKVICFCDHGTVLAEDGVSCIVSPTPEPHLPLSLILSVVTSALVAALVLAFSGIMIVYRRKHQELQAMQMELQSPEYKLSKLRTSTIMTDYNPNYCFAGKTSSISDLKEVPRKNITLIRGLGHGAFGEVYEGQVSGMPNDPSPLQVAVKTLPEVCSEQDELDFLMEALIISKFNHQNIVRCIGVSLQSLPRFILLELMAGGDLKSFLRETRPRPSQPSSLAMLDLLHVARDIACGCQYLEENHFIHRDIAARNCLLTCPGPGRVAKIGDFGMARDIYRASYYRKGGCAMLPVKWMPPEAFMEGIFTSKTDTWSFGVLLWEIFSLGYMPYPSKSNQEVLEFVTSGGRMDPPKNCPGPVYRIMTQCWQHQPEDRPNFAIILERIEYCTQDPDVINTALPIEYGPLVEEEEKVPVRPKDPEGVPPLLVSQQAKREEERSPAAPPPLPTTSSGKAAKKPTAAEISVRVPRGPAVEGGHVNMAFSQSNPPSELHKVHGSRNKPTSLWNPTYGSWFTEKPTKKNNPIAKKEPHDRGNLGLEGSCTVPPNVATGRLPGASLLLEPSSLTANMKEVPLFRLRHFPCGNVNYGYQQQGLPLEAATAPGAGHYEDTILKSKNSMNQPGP
T2 sequence (O60674 whole entry): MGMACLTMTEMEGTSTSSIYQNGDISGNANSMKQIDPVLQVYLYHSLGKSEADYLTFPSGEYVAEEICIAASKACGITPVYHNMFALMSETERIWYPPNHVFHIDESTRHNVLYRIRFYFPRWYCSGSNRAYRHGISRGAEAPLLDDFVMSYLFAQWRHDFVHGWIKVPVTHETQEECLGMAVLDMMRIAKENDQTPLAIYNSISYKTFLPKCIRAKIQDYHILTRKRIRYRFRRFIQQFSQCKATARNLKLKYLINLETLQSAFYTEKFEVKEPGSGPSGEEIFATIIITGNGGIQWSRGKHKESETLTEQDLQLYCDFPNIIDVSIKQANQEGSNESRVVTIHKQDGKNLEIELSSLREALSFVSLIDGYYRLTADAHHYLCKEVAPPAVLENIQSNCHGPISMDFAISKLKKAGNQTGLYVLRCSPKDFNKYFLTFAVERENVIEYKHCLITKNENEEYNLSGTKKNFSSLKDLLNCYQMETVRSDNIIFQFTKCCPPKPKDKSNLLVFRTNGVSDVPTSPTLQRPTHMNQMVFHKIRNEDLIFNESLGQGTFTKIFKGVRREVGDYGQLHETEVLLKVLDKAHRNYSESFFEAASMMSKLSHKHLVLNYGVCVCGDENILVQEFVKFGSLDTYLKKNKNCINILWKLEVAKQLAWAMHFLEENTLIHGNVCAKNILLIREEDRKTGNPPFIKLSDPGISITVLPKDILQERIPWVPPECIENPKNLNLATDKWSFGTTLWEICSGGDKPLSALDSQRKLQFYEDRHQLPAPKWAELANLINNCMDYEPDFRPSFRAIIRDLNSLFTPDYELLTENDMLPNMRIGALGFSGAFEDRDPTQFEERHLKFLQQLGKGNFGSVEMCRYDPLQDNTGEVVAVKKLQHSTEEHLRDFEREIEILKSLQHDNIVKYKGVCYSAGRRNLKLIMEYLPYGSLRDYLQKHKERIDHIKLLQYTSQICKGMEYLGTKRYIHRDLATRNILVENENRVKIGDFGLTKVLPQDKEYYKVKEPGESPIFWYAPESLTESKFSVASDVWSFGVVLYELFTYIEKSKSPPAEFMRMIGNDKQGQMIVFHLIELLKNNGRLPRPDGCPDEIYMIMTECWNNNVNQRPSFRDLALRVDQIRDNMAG

Consider `COc1ccccc1-c1ccc2cnc(Nc3ccc4c(c3)CCC(N3CCOCC3)CC4)nn12` (stereo not drawn) [Example 614, [7-(2-methoxy-phenyl)-pyrrolo[2,1-f][1,2,4]triazin-2-yl]-(7-morpholin-4-yl-6,7,8,9-tetrahydro-5H-benzocyclohepten-2-yl)amine], for which the IC50 on ALK (setting [1]) and on JAK2 (setting [2]) was less than 100 nM throughout.
With `CN1CCN(c2ccc(Nc3ncc4ccc(-c5ccccc5O)n4n3)cc2)CC1` [Example 1154, 2-{2-[4-(4-Methyl-piperazin-1-yl)-phenylamino]-pyrrolo[2,1-f][1,2,4]triazin-7-yl}-phenol], the IC50 on ALK (setting [1]) and at JAK2 (setting [2]) was less than 100 nM in each case.
Take `COc1cc(C2CCN(CCO)CC2)ccc1Nc1ncc2ccc(-c3ccccc3N(C)S(C)(=O)=O)n2n1` [Example 793, N-[2-(2-{4-[1-(2-Hydroxy-ethyl)-piperidin-4-yl]-2-methoxy-henylamino}-pyrrolo[2,1-f][1,2,4]triazin-7-yl)-phenyl]-N-methyl-methanesulfonamide]: the IC50 at ALK (setting [1]) was less than 100 nM; on JAK2 (setting [2]), 100 to 1000 nM.
As for `COc1cc(N2CCC(N3CCOCC3)CC2)ccc1Nc1ncc2ccc(-c3ccccc3OC(F)(F)F)n2n1` [Example 1455, [2-Methoxy-4-(4-morpholin-4-yl-piperidin-1-yl)-phenyl]-[7-(2-trifluoromethoxy-phenyl)-pyrrolo[2,1-f][1,2,4]triazin-2-yl]-amine], the IC50 on ALK (ALK Kinase Inhibition) and on JAK2 (JAK2 Kinase Inhibition) was less than 100 nM in each case.
`CN1C(=O)Cc2cc(Nc3ncc4ccc(-c5cccnc5)n4n3)ccc21` [Example 374, 1-Methyl-5-(7-pyridin-3-yl-pyrrolo[2,1-f][1,2,4]triazin-2-ylamino)-1,3-dihydro-indol-2-one]: the IC50 at ALK (ALK Kinase Inhibition) is 1000 to 10000 nM; at JAK2 (JAK2 Kinase Inhibition), less than 100 nM.
With `CC(C)(C)NS(=O)(=O)c1cccc(-c2ccc3cnc(Nc4cccc(-n5cnnc5)c4)nn23)c1` [Example 1391, N-tert-Butyl-3-[2-(3-[1,2,4]triazol-4-yl-phenylamino)-pyrrolo[2,1-f][1,2,4]triazin-7-yl]-benzenesulfonamide], the IC50 is 100 to 1000 nM at ALK (ALK Kinase Inhibition) and less than 100 nM on JAK2 (JAK2 Kinase Inhibition).
For `CN(c1ccccc1-c1ccc2cnc(Nc3ccc(C4CCN(CC(N)=O)CC4)cc3)nn12)S(C)(=O)=O` [Example 1408, 2-[4-(4-{7-[2-(Methanesulfonyl-methyl-amino)-phenyl]-pyrrolo[2,1-f][1,2,4]triazin-2-ylamino}-phenyl)-piperidin-1-yl]-acetamide], the IC50 at ALK (ALK Kinase Inhibition) and at JAK2 (JAK2 Kinase Inhibition) was less than 100 nM in each case.
Consider `COc1cc(CN2CCNCC2)ccc1Nc1ncc2ccc(-c3ccccc3N(C)S(C)(=O)=O)n2n1` [Example 1223, N-{2-[2-(2-Methoxy-4-piperazin-1-ylmethyl-phenylamino)-pyrrolo[2,1-f][1,2,4]triazin-7-yl]-phenyl}-N-methyl-methanesulfonamide], for which the IC50 at ALK (setting [1]) is less than 100 nM; at JAK2 (setting [2]) it was 1000 to 10000 nM.
Take `CS(=O)(=O)Nc1ccccc1-c1ccc2cnc(Nc3cccc(N4CCOCC4)c3)nn12` [Example 431, N-{2-[2-(3-Morpholin-4-yl-phenylamino)-pyrrolo[2,1-f][1,2,4]triazin-7-yl]-phenyl}-methanesulfonamide]: the IC50 is 1000 to 10000 nM at ALK (ALK Kinase Inhibition) and less than 100 nM at JAK2 (JAK2 Kinase Inhibition).
Regarding “{6-[7-(3-tert-Butylsulfamoyl-phenyl)-pyrrolo[2,1-f][1,2,4]triazin-2-yl amino]-2-hydroxy-indan-1-yl}-carbamic acid tert-butyl ester [Example 672]”, the figures for the IC50 at ALK (setting [1]) and on JAK2 (setting [2]) were 100 to 1000 nM and less than 100 nM, respectively.
Regarding `CN(c1ccccc1-c1ccc2cnc(Nc3ccc4cnn(C)c4c3)nn12)S(C)(=O)=O` [Example 1340, N-Methyl-N-{2-[2-(1-methyl-1H-indazol-6-ylamino)-pyrrolo[2,1-f][1,2,4]triazin-7-yl]-phenyl}-methanesulfonamide], the IC50 on ALK (setting [1]) is 100 to 1000 nM; at JAK2 (setting [2]), less than 100 nM.
With `COc1ccccc1-c1ccn2nc(Nc3ccc(N4CCN(C)CC4)cc3)ncc12` [Example 42, [5-(2-Methoxy-phenyl)-pyrrolo[2,1-f][1,2,4]triazin-2-yl]-[4-(4-methyl-piperazin-1-yl)-phenyl]-amine], the figures for the IC50 at ALK (ALK Kinase Inhibition) and at JAK2 (JAK2 Kinase Inhibition) were greater than 10000 nM and 100 to 1000 nM, respectively.
With `CC(C)(C)NS(=O)(=O)c1cccc(-c2ccc3cnc(Nc4cccc(C(=O)O)c4)nn23)c1` [Example 895, 3-[7-(3-tert-Butylsulfamoyl-phenyl)-pyrrolo[2,1-f][1,2,4]triazin-2-ylamino]-benzoic acid], the IC50 was 1000 to 10000 nM at ALK (setting [1]) and less than 100 nM on JAK2 (setting [2]).
Take `COc1ccccc1-c1ccc2cnc(Nc3ccc(OCCN4CCN(C)CC4)cc3)nn12` [Example 94, [7-(2-Methoxy-phenyl)-pyrrolo[2,1-f][1,2,4]triazin-2-yl]-{4-[2-(4-methyl-piperazin-1-yl)-ethoxy]-phenyl}-amine]: the IC50 at ALK (ALK Kinase Inhibition) and on JAK2 (JAK2 Kinase Inhibition) was less than 100 nM each time.
As to `CC(C)(C)NS(=O)(=O)c1cccc(-c2ccc3cnc(Nc4cccc(C(=O)N5CCOCC5)c4)nn23)c1` [Example 892, N-tert-Butyl-3-{2-[3-(morpholine-4-carbonyl)-phenylamino]-pyrrolo[2,1-f][1,2,4]triazin-7-yl}-benzenesulfonamide], the IC50 at ALK (setting [1]) is 1000 to 10000 nM; on JAK2 (setting [2]) it was less than 100 nM.
In the case of `CN(c1ccccc1-c1ccc2cnc(Nc3ccc4c(c3)CCN(CC(N)=O)C4)nn12)S(C)(=O)=O` [Example 918, 2-(6-{7-[2-(Methanesulfonyl-methyl-amino)-phenyl]-pyrrolo[2,1-f][1,2,4]triazin-2-ylamino}-3,4-dihydro-1H-isoquinolin-2-yl)-acetamide], the IC50 is 100 to 1000 nM at ALK (setting [1]) and less than 100 nM on JAK2 (setting [2]).
For the compound `COc1ccccc1-c1ccc2cnc(Nc3ccc(N4CCCC(N5CCOCC5)C4)cc3)nn12` (stereo not drawn) [Example 343, [7-(2-Methoxy-phenyl)-pyrrolo[2,1-f][1,2,4]triazin-2-yl]-[4-(3-morpholin-4-yl-piperidin-1-yl)-phenyl]-amine], the IC50 at ALK (ALK Kinase Inhibition) and on JAK2 (JAK2 Kinase Inhibition) was less than 100 nM each time.
`CN1CCN(C(=O)c2ccc(Nc3ncc4ccc(-c5cccc(S(=O)(=O)NC(C)(C)C)c5)n4n3)cc2)CC1` [Example 1410, N-tert-Butyl-3-{2-[4-(4-methyl-piperazine-1-carbonyl)-phenylamino]-pyrrolo[2,1-f][1,2,4]triazin-7-yl}-benzenesulfonamide]: the figures for the IC50 at ALK (ALK Kinase Inhibition) and on JAK2 (JAK2 Kinase Inhibition) were 100 to 1000 nM and less than 100 nM, respectively.
In the same order, the values of `CS(=O)(=O)c1ccc(-c2ccc3cnc(Nc4ccc(C5CCNCC5)cc4)nn23)cc1` [Example 1571, [7-(4-Methanesulfonyl-phenyl)-pyrrolo[2,1-f][1,2,4]triazin-2-yl]-(4-piperidin-4-yl-phenyl)-amine] are 100 to 1000 nM and less than 100 nM.
On to `CC(C)(C)NS(=O)(=O)c1cccc(-c2ccc3cnc(Nc4ccc(C5CCN(CCO)CC5)cc4)nn23)c1` [Example 670, N-tert-Butyl-3-(2-{4-[1-(2-hydroxy-ethyl)-piperidin-4-yl]-phenylamino}-pyrrolo[2,1-f][1,2,4]triazin-7-yl)-benzenesulfonamide], for which the results for the IC50 on ALK (setting [1]) and at JAK2 (setting [2]) were 100 to 1000 nM and less than 100 nM, respectively.
On to `COc1ccccc1-c1ccc2cnc(Nc3cccc(OC4CCNCC4)c3)nn12` [Example 601, [7-(2-Methoxy-phenyl)-pyrrolo[2,1-f][1,2,4]triazin-2-yl]-[3-(piperidin-4-yloxy)-phenyl]-amine], for which the values for the IC50 on ALK (setting [1]) and at JAK2 (setting [2]) were 100 to 1000 nM and less than 100 nM, respectively.
In the case of `COCCN1CCc2ccc(Nc3ncc4ccc(-c5ccccc5)n4n3)cc2CC1` [Example 9, [3-(2-Methoxy-ethyl)-2,3,4,5-tetrahydro-1H-benzo[d]azepin-7-yl]-(7-phenyl-pyrrolo[2,1-f][1,2,4]triazin-2-yl)-amine], the IC50 at ALK (ALK Kinase Inhibition) and on JAK2 (JAK2 Kinase Inhibition) was less than 100 nM each time.
Consider `COc1ccc(-c2ccc3cnc(Nc4ccc(N5CCC(CO)CC5)cc4)nn23)cn1` [Example 1102, (1-{4-[7-(6-Methoxy-pyridin-3-yl)-pyrrolo[2,1-f][1,2,4]triazin-2-ylamino]-phenyl}-piperidin-4-yl)-methanol], for which the IC50 was 100 to 1000 nM at ALK (setting [1]) and less than 100 nM on JAK2 (setting [2]).
`CC(C)(C)OCc1cccc(-c2ccc3cnc(Nc4cccc(N5CCOCC5)c4)nn23)c1` [Example 1560, [7-(3-tert-Butoxymethyl-phenyl)-pyrrolo[2,1-f][1,2,4]triazin-2-yl]-(3-morpholin-4-yl-phenyl)-amine]: the IC50 on ALK (ALK Kinase Inhibition) was greater than 10000 nM; on JAK2 (JAK2 Kinase Inhibition) it was less than 100 nM.
Consider `COc1cc(C2CCN(CC(N)=O)CC2)ccc1Nc1ncc2ccc(-c3ccccc3N(C)S(C)(=O)=O)n2n1` [Example 812, 2-[4-(4-{7-[2-(Methanesulfonyl-methyl-amino)-phenyl]-pyrrolo[2,1-f][1,2,4]triazin-2-ylamino}-3-methoxy-phenyl)-piperidin-1-yl]-acetamide], for which the IC50 on ALK (setting [1]) is less than 100 nM; at JAK2 (setting [2]) it was 100 to 1000 nM.
On to `CN1CCN(c2ccc(Nc3ncc4ccc(-c5cccc(S(=O)(=O)NC(C)(C)C)c5)n4n3)cn2)CC1` [Example 1127, N-tert-Butyl-3-{2-[6-(4-methyl-piperazin-1-yl)-pyridin-3-ylamino]-pyrrolo[2,1-f][1,2,4]triazin-7-yl}-benzenesulfonamide], for which the IC50 on ALK (setting [1]) is 100 to 1000 nM; on JAK2 (setting [2]), less than 100 nM.
Consider `COc1ncccc1-c1ccc2cnc(Nc3ccc(N4CCN(C)CC4)cc3)nn12` [Example 22, [7-(2-Methoxy-pyridin-3-yl)-pyrrolo[2,1-f][1,2,4]triazin-2-yl]-[4-(4-methyl-piperazin-1-yl)-phenyl]-amine], for which the IC50 on ALK (ALK Kinase Inhibition) and on JAK2 (JAK2 Kinase Inhibition) was less than 100 nM each time.
